# Molecular target: CDK2/CyclinE1 (Homo sapiens (Human), UniProt P24941)
# Assay: CDK2 kinase assay (TR-FRET)
# Assay type: biochemical
# Conditions: CDK2/CyclinE1 0.5 nM, ATP 50 μM
# Method: The purpose of these assays is to evaluate the inhibition of small molecule inhibitors by using TR-FRET assay.
# Compound Preparation. Dissslove the compounds into DMSO solution to make 10 mM DMSO stock. Serially dilute the stock solution from highest concentration down to lowest in DMSO to make the compound stock plate (100× stock plates). To make 5× compound intermediate plate, add 38 μL of assay buffer (50 mM HEPES, pH 7.5, 0.05 mg/mL BSA, 10 mM MgCl2, 1 mM EGTA, 0.01% Tween-20, 2 mM DTT) into each well of the V-bottom plate; then transfer 2 μL of the stock compound solution of each concentration from the compound stock plate (100× stock), and mix well.
# Enzyme reaction. Transfer 2 μL compound from 5× intermediate plate into assay plate, then add 4 μL/well 2.5× Enzyme mix to assay plate, incubation for 10 min at room temperature. For positive control wells, add 4 μL/well assay buffer instead of Enzyme mix. Then add 4 μL/well 2.5× Substrate mix to assay plate, and incubation at 25° C. for 30 min at room temperature. After reaction, 10 μL 2× Detection mix (final 15 mM EDTA, 1× LANCE Detection Buffer, 0.5 nM Detection antibody) was added and incubated for 1 h prior to detection with excitation and emission at 320 and 665 nm (Tecan Spark® TR-FRET mode Tecan).
# Inhibition rate (IR) of the tested compounds was determined by the following formula: IR (%)=(average High control−compound well)/(average High control−average Low control)*100%. Fit the compound IC50 from non-linear regression equation: Y=Bottom+(Top−Bottom)/(1+10^((Log IC50−X)*HillSlope)). X: Log of cpd concentration; Y: Inhibition rate (TR); Top and Bottom: Plateaus in same units as Y, log IC50: same log units as X; HillSlope: Slope factor or Hill slope.
row,Compound,IC50 [nM]
1,CC[C@H](C)NC(=O)O[C@H]1CO[C@@H](c2cc(NC(=O)c3ccnn3C)n[nH]2)C1 [Compound 99],0.8
2,C#C[C@H]1C[C@@H]1C(=O)Nc1cc([C@H]2C[C@@H](OC(=O)NC3(C)CC3)CO2)[nH]n1 [Compound 170],0.8
3,"CC(C)NC(=O)O[C@@H]1CC[C@H](c2cc(NC(=O)C3CC3c3cnnn3C)n[nH]2)C1 (single isomer, unassigned) [Compound 153]",2.1
4,COCc1cc(F)cc(CC(=O)Nc2cc([C@@H]3C[C@H](OC(=O)NC(C)C)CO3)[nH]n2)c1 [Compound 104],17.5
5,CC1(NC(=O)O[C@@H]2CC[C@H](c3cc(NC(=O)[C@@H]4CCN(S(C)(=O)=O)C4)n[nH]3)C2)CCC1 [Compound 119],0.4
6,Cn1nccc1C(=O)Nc1cc([C@H]2CC[C@@H](OC(=O)NC34CCC(CC3)OC4)C2)[nH]n1 [Compound 42],4.4
7,COC[C@H]1C[C@@H]1C(=O)Nc1cc([C@H]2CC[C@@H](OC(=O)NC34CC(C3)C4)C2)[nH]n1 [Compound 34],0.7
8,CC(C)NC(=O)O[C@@H]1COC(c2cc(NC(=O)Cc3ccc(OCCN4CCCC4)cc3)n[nH]2)C1 (stereo partly drawn) [Compound 128],14.6
9,CC(C)NC(=O)O[C@@H]1CC[C@H](c2cc(NC(=O)[C@@H]3CCN(S(=O)(=O)C(C)C)C3)n[nH]2)C1 [Compound 58],4.1
10,CC1(NC(=O)O[C@@H]2CC[C@H](c3cc(NC(=O)[C@@H]4CCN(S(=O)(=O)C5CC5)C4)n[nH]3)C2)CCC1 [Compound 139],0.7
11,CC(C)NC(=O)O[C@@H]1CC[C@H](c2cc(NC(=O)C34CC(C3)C4)n[nH]2)C1 [Compound 46],1.5
12,Cc1cc(C(=O)Nc2cc([C@H]3C[C@@H](OC(=O)NC(C)C)CO3)[nH]n2)n(C)n1 [Compound 90],5.7
13,C#C[C@H]1C[C@@H]1C(=O)Nc1cc([C@@H]2C[C@H](OC(=O)N[C@@H](C)CC)CO2)[nH]n1 [Compound 156],6
14,"Cn1nc(C2CC2)cc1C(=O)Nc1cc([C@H]2CC[C@@H](OC(=O)NC3COC4(CCC4)C3)C2)[nH]n1 (single isomer, unassigned) [Compound 48]",10.7
15,CC1(NC(=O)O[C@@H]2CC[C@H](c3cc(NC(=O)[C@@H]4CCN(S(=O)(=O)C5CC5)C4)n[nH]3)C2)CC1 [Compound 140],0.7
16,Cn1nccc1C(=O)Nc1cc([C@H]2C[C@@H](OC(=O)NC3(C)CCC3)CO2)[nH]n1 [Compound 138],1
17,CC#C[C@H]1C[C@@H]1C(=O)Nc1cc([C@H]2CC[C@@H](OC(=O)NC(C)C)C2)[nH]n1 [Compound 177],1
18,CC(C)NC(=O)O[C@H]1CO[C@@H](c2cc(NC(=O)c3ccnn3CC(F)F)n[nH]2)C1 [Compound 92],2
19,CC(C)NC(=O)O[C@@H]1CC[C@H](c2cc(NC(=O)[C@@H]3CCCN(S(C)(=O)=O)C3)n[nH]2)C1 [Compound 71],8.7

row,Compound,IC50 [nM]
1,COC[C@H]1C[C@@H]1C(=O)Nc1cc([C@H]2CC[C@@H](OC(=O)NC3(C)CC3)C2)[nH]n1 [Compound 35],0.8
2,Cn1nccc1C(=O)Nc1cc([C@@H]2C[C@H](OC(=O)NC34CC(F)(C3)C4)CO2)[nH]n1 [Compound 160],5.3
3,"CC(C)NC(=O)O[C@@H]1CC[C@H](c2cc(NC(=O)C3CC3C#N)n[nH]2)C1 (single isomer, unassigned) [Compound 118]",1.8
4,CCc1cc(C(=O)Nc2cc([C@@H]3C[C@H](OC(=O)NC(C)C)CO3)[nH]n2)n(C)n1 [Compound 78],18.7
5,"Cc1c(C2CC2C(=O)Nc2cc([C@H]3CC[C@@H](OC(=O)NC4(C)CC4)C3)[nH]n2)cnn1C (single isomer, unassigned) [Compound 206]",0.8
6,CC(C)NC(=O)O[C@@H]1CC[C@H](c2cc(NC(=O)C3CC34CCOC4)n[nH]2)C1 (stereo partly drawn) [Compound 175],174
7,"CC(C)(C)NC(=O)O[C@@H]1CC[C@H](c2cc(NC(=O)C3CC3C#N)n[nH]2)C1 (single isomer, unassigned) [Compound 188]",0.6
8,C#C[C@H]1C[C@@H]1C(=O)Nc1cc([C@@H]2C[C@H](OC(=O)NC(C)C)CO2)[nH]n1 [Compound 165],4.7
9,COC[C@H]1C[C@@H]1C(=O)Nc1cc([C@H]2CC[C@@H](OC(N)=O)C2)[nH]n1 [Compound 40],47.7
10,COC[C@H]1C[C@@H]1C(=O)Nc1cc([C@H]2CC[C@@H](OC(=O)N[C@H](C)C3CC3)C2)[nH]n1 [Compound 73],4.1
11,"Cn1nccc1C(=O)Nc1cc([C@H]2CC[C@@H](OC(=O)NC3COC4(CCC4)C3)C2)[nH]n1 (single isomer, unassigned) [Compound 43]",12.1
12,COCc1cc(C(=O)Nc2cc([C@@H]3C[C@H](OC(=O)NC(C)C)[C@@H]4C[C@@H]43)[nH]n2)n(C)n1 [Compound 9],1000
13,CC(C)NC(=O)O[C@@H]1CC[C@H](c2cc(NC(=O)[C@@H]3C[C@@H](C(C)C)N(S(C)(=O)=O)C3)n[nH]2)C1 [Compound 179],12.6
14,"CC(C)NC(=O)O[C@@H]1CC[C@H](c2cc(NC(=O)C3CC3c3cnn(C)c3)n[nH]2)C1 (single isomer, unassigned) [Compound 210]",1
15,CCC1(NC(=O)O[C@H]2CO[C@@H](c3cc(NC(=O)c4ccnn4C)n[nH]3)C2)CC1 [Compound 203],0.9
16,C#C[C@H]1C[C@@H]1C(=O)Nc1cc([C@H]2C[C@@H](OC(=O)NC3(C)COC3)CO2)[nH]n1 [Compound 182],4
17,CCC1(NC(=O)O[C@@H]2CO[C@H](c3cc(NC(=O)c4ccnn4C)n[nH]3)C2)CC1 [Compound 204],1
18,CC(C)NC(=O)O[C@@H]1CC[C@H](c2cc(Nc3nccc(CCO)n3)n[nH]2)C1 [Compound 29],68.8
19,"Cc1c(C2CC2C(=O)Nc2cc([C@H]3CC[C@@H](OC(=O)NC4(C)CC4)C3)[nH]n2)cnn1C (single isomer, unassigned) [Compound 205]",24

row,Compound,IC50 [nM]
1,CC[C@H](C)NC(=O)O[C@@H]1CC[C@H](c2cc(NC(=O)[C@@H]3CCN(S(C)(=O)=O)C3)n[nH]2)C1 [Compound 59],4.9
2,COCc1cc(C(=O)Nc2cc([C@H]3C[C@@H]4[C@H](C3)[C@H]4C(=O)NC(C)(C)C)[nH]n2)n(C)n1 [Compound 98],18.8
3,"Cc1cc(CC(=O)Nc2cc([C@H]3CC[C@@H](OC(=O)NC4COC5(CCC5)C4)C3)[nH]n2)on1 (single isomer, unassigned) [Compound 39]",4
4,C#C[C@H]1C[C@@H]1C(=O)Nc1cc([C@@H]2CC[C@H](OC(=O)NC3(C)COC3)C2)[nH]n1 [Compound 222],1.1
5,CC1(NC(=O)O[C@@H]2CC[C@H](c3cc(NC(=O)[C@@H]4CCN(S(C)(=O)=O)C4)n[nH]3)C2)CC1 [Compound 83],1.1
6,"CC(C)NC(=O)O[C@H]1CC[C@@H](c2cc(NC(=O)C3CC3C#N)n[nH]2)C1 (single isomer, unassigned) [Compound 192]",2
7,CC(C)NC(=O)O[C@@H]1CC[C@H](C2=CC(NC(=O)[C@H]3C[C@@H]3[C@@H](C)O)=NC2)C1 [Compound 137],5.3
8,"COC[C@H]1C[C@@H]1C(=O)Nc1cc([C@H]2CC[C@@H](OC(=O)NC(C)C(F)F)C2)[nH]n1 (single isomer, unassigned) [Compound 107]",3
9,CC(C)NC(=O)O[C@@H]1CC[C@H](c2cc(NC(=O)C3[C@H]4COC[C@@H]34)n[nH]2)C1 (stereo partly drawn) [Compound 115],54.5
10,CC(C)NC(=O)O[C@@H]1CC[C@H](c2cc(NC(=O)C3CCN(S(C)(=O)=O)CC3)n[nH]2)C1 [Compound 8],11.3
11,"CC(C)NC(=O)O[C@@H]1CC[C@H](c2cc(NC(=O)C3CC3c3cnnn3C)n[nH]2)C1 (single isomer, unassigned) [Compound 154]",2.6
12,CC(C)NC(=O)OC1COC(c2cc(NC(=O)c3ccccc3)n[nH]2)C1 (stereo not drawn) [Compound 67],61.2
13,"CC(C)NC(=O)O[C@H]1CC[C@@H](c2cc(NC(=O)C3CC3C#N)n[nH]2)C1 (single isomer, unassigned) [Compound 193]",0.6
14,CS(=O)(=O)N1CC[C@@H](C(=O)Nc2cc([C@H]3CC[C@@H](OC(=O)NC4(C(F)F)CC4)C3)[nH]n2)C1 [Compound 124],1.2
15,CC(C)NC(=O)O[C@H]1CO[C@@H](c2cc(NC(=O)Cc3ccc(OCCN4CCCC4)cc3)n[nH]2)C1 [Compound 121],3.2
16,C#C[C@H]1C[C@@H]1C(=O)Nc1cc([C@H]2CC[C@@H](OC(=O)NC34CC(F)(C3)C4)C2)[nH]n1 [Compound 194],0.7
17,CS(=O)(=O)N1CC[C@@H](C(=O)Nc2cc([C@H]3CC[C@@H](OC(=O)NC45CC(C4)C5)C3)[nH]n2)C1 [Compound 81],0.9
18,"Cc1c(C2CC2C(=O)Nc2cc([C@@H]3CC[C@H](OC(=O)NC(C)C)C3)[nH]n2)cnn1C (single isomer, unassigned) [Compound 208]",0.8
19,"CC1(NC(=O)O[C@@H]2CC[C@H](c3cc(NC(=O)C4CC4C#N)n[nH]3)C2)CC1 (single isomer, unassigned) [Compound 213]",0.9

# — patent US20250195475A1, “CDK2 INHIBITOR AND PREPARATION METHOD AND USE THEREOF” (INVENTISBIO CO., LTD., priority 2022, published 2025)
